target: T1, KCNT1 (KNa1.1, Slack) (Homo sapiens, UniProt Q5JUK3); test: KCNT1-WT-Basal patch clamp assay (SyncroPatch 384PE, HEK-TREX inducible cell line); assay type: cell-based; conditions: tetracycline inducible HEK-TREX cells; perforated patch; holding -80 mV, 100 ms step to 0 mV; room temperature; read-out: KCNT1 WB IC50
T1 construct: expressed in transfected cells; host or cells: HEK-TREX (tetracycline-inducible HEK cell line)
T1 sequence (Q5JUK3 1-1230): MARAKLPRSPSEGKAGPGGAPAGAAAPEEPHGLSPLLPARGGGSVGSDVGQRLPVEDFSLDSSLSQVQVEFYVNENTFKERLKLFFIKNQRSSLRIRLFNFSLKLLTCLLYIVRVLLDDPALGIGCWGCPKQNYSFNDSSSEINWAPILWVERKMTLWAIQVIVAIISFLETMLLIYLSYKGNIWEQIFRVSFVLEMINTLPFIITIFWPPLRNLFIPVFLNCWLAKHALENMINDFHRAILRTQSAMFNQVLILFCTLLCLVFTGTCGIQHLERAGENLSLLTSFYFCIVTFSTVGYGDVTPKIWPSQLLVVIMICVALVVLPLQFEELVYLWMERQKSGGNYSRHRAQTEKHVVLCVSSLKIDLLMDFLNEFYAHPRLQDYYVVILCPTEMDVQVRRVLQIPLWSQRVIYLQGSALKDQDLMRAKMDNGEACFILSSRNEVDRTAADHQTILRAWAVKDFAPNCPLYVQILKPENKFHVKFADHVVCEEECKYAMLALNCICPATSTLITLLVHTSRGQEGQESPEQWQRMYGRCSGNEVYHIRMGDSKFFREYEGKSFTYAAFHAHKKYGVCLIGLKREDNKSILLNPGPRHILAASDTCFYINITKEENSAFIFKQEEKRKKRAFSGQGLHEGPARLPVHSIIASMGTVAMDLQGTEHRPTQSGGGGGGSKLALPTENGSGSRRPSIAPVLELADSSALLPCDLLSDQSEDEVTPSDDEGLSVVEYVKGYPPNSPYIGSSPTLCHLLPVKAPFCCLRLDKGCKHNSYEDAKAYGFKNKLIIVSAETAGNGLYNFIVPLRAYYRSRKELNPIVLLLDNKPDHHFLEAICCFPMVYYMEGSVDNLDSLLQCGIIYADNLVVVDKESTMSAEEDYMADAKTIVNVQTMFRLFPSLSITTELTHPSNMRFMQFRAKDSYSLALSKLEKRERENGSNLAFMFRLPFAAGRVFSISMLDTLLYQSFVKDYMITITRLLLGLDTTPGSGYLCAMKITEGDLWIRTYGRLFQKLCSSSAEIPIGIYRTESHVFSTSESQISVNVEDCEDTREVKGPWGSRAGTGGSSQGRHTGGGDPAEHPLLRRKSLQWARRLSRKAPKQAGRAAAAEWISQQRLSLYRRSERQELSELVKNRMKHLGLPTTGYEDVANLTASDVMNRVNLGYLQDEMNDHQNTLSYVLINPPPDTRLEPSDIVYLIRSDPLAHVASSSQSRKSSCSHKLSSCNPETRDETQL
Protocol: KCNT1-WT-Basal—Patch Clamp Assay
Inhibition of KCNT1 (KNa1.1, Slack) was evaluated using a tetracycline inducible cell line (HEK-TREX). Currents were recorded using the SyncroPatch 384PE automated, patch clamp system. Pulse generation and data collection were performed with PatchController384 V1.3.0 and DataController384 V1.2.1 (Nanion Technologies). The access resistance and apparent membrane capacitance were estimated using built-in protocols. Current were recorded in perforated patch mode (10 μM escin) from a population of cells. The cells were lifted, triturated, and resuspended at 800,000 cells/ml. The cells were allowed to recover in the cell hotel prior to experimentation. Currents were recorded at room temperature. The external solution contained the following (in mM): NaCl 105, NMDG 40, KCl 4, MgCl2 1, CaCl2 5 and HEPES 10 (pH=7.4, Osmolarity ˜300 mOsm). The extracellular solution was used as the wash, reference and compound delivery solution. The internal solution contained the following (in mM): NaCl 70, KF 70, KCl 10, EGTA 5, HEPES 5 and Escin 0.01 (pH=7.2, Osmolarity ˜295 mOsm). Escin is made at a 5 mM stock in water, aliquoted, and stored at −20° C. The compound plate was created at 2× concentrated in the extracellular solution. The compound was diluted to 1:2 when added to the recording well. The amount of DMSO in the extracellular solution was held constant at the level used for the highest tested concentration. A holding potential of −80 mV with a 100 ms step to 0 mV was used. Mean current was measured during the step to 0 mV. […] The average mean current from 3 sweeps was calculated and the % inhibition of each compound was calculated. The % Inhibition as a function of the compound concentration was fit with a Hill equation to derive IC50, slope, min and max parameters. If KCNT1 inhibition was less than 50% at the highest tested concentration or if an IC50 could not be calculated, then a percent inhibition was reported in place of the IC50.

SMILES	IC50
Cc1cc(S(N)(=O)=O)oc1C(=O)N[C@@H]1CCc2cc(Cl)ccc21 [Compound I-12]	≥ 20 µM
CCS(=O)(=O)c1ccc(C(=O)N[C@@H]2CCc3cc(Cl)ccc32)s1 [Compound I-34]	≤ 1 µM
CO[C@H]1CCN(S(=O)(=O)c2ccc(C(=O)N[C@@H]3CCc4cc(Cl)ccc43)s2)C1 [Compound I-43]	≤ 1 µM
NS(=O)(=O)c1ccc(C(=O)N[C@@H]2CCCc3cc(Cl)ccc32)s1 (single isomer, unassigned) [Compound I-33]	≥ 20 µM
CO[C@@H]1CCN(S(=O)(=O)c2ccc(C(=O)N[C@@H]3CCc4cc(Cl)ccc43)s2)C1 [Compound I-46]	≤ 1 µM
NS(=O)(=O)c1ccc(C(=O)N[C@@H]2CCc3cc(Cl)ccc32)o1 [Compound I-3]	1 to 20 µM
COCc1ccc(C(=O)N[C@@H]2CCc3cc(Cl)ccc32)s1 [Compound I-36]	≤ 1 µM
NC(=O)c1ccc(C(=O)N[C@@H]2CCc3cc(Cl)ccc32)s1 [Compound I-20]	≤ 1 µM
CN(C)Cc1ccc(C(=O)N[C@@H]2CCc3cc(Cl)ccc32)s1 [Compound I-38]	1 to 20 µM
CS(=O)(=O)c1ccc(C(=O)N[C@@H]2CCc3cc(Cl)ccc32)s1 [Compound I-18]	≤ 1 µM
NS(=O)(=O)c1cc(C(=O)N[C@@H]2CCc3cc(Cl)ccc32)cs1 [Compound I-6]	≤ 1 µM
Cc1oc(S(N)(=O)=O)cc1C(=O)N[C@@H]1CCc2cc(Cl)ccc21 [Compound I-11]	≥ 20 µM
O=C(N[C@@H]1CCc2cc(Cl)ccc21)c1ccc(S(=O)(=O)N2CC[C@@H](O)C2)s1 [Compound I-40]	≤ 1 µM
Cc1sc(C(=O)N[C@@H]2CCc3cc(Cl)ccc32)cc1S(N)(=O)=O [Compound I-8]	1 to 20 µM
Cc1oc(C(=O)N[C@@H]2CCc3cc(Cl)ccc32)cc1S(N)(=O)=O [Compound I-9]	1 to 20 µM
O=C(N[C@@H]1CCc2cc(Cl)ccc21)c1ccc(S(=O)(=O)C2CC2)s1 [Compound I-21]	≤ 1 µM
CN(C)C(=O)c1ccc(C(=O)N[C@@H]2CCc3cc(Cl)ccc32)s1 [Compound I-29]	≤ 1 µM
Cn1c(C(=O)N[C@@H]2CCc3cc(Cl)ccc32)ccc1S(N)(=O)=O [Compound I-13]	≥ 20 µM

The remaining lines, values ahead:

IC50	SMILES
≥ 20 µM	O=C(N[C@@H]1CCc2cc(Cl)ccc21)c1ccc(NS(=O)(=O)C(F)(F)F)cc1 [Compound II-12]
≥ 20 µM	Cc1cc(S(C)(=O)=O)ccc1C(=O)N[C@@H]1CCc2cc(Cl)ccc21 [Compound II-33]
1 to 20 µM	CN(c1ccc(C(=O)N[C@H]2CCc3cc(Cl)ccc32)cc1)S(=O)(=O)C1CC1 [Compound II-20]
≥ 20 µM	CS(=O)(=O)N(CCOC(F)(F)F)c1ccc(C(=O)N[C@@H]2CCc3cc(Cl)ccc32)cc1 [Compound II-46]
≥ 20 µM	CS(=O)(=O)Nc1ccc(C(=O)NC2CCCc3cc(Cl)ccc32)cc1 (single isomer, unassigned) [Compound II-52, N-(6-chlorotetralin-1-yl)-4-(methanesulfonamido)benzamide]
1 to 20 µM	NC(=O)c1ccc(C(=O)N[C@@H]2CCc3cc(Cl)ccc32)cc1 [Compound II-26]
≤ 1 µM	CCS(=O)(=O)c1ccc(C(=O)N[C@@H]2CCc3cc(Cl)ccc32)cc1 [Compound II-30]
1 to 20 µM	NS(=O)(=O)Nc1ccc(C(=O)N[C@@H]2CCc3cc(Cl)ccc32)cc1 [Compound II-37]
1 to 20 µM	COCCS(=O)(=O)c1ccc(C(=O)N[C@@H]2CCc3cc(Cl)ccc32)cc1 [Compound II-40]
≤ 1 µM	O=C(N[C@@H]1CCc2cc(Cl)ccc21)c1cccc(Cl)c1O [Compound III-7]
1 to 20 µM	O=C(N[C@@H]1CCc2cc(Cl)ccc21)c1ccc(S(=O)(=O)CC(F)F)cc1 [Compound II-51]
1 to 20 µM	CS(=O)(=O)Nc1ccc(C(=O)NC2CCc3cc(F)ccc32)cc1 (single isomer, unassigned) [Compound II-57, N-[5-fluoroindan-1-yl]-4-(methanesulfonamido)benzamide]
1 to 20 µM	CN(C)CCN(c1ccc(C(=O)N[C@@H]2CCc3cc(Cl)ccc32)cc1)S(C)(=O)=O [Compound II-44]
1 to 20 µM	CN(C)C(=O)CN(c1ccc(C(=O)N[C@@H]2CCc3cc(Cl)ccc32)cc1)S(C)(=O)=O [Compound II-49]
≤ 1 µM	CS(=O)(=O)c1ccc(C(=O)N[C@@H]2CCc3cc(Cl)ccc32)cc1F [Compound II-35]
1 to 20 µM	COCCN(c1ccc(C(=O)N[C@@H]2CCc3cc(Cl)ccc32)cc1)S(C)(=O)=O [Compound II-43]
1 to 20 µM	CS(=O)(=O)N(c1ccc(C(=O)N[C@@H]2CCc3cc(Cl)ccc32)cc1)C1COC1 [Compound II-50]
1 to 20 µM	CS(=O)(=O)N(CC(F)(F)F)c1ccc(C(=O)N[C@@H]2CCc3cc(Cl)ccc32)cc1 [Compound II-45]
≥ 20 µM	COc1ccc(C(=O)NC2CCc3cc(Cl)ccc32)cc1 (single isomer, unassigned) [Compound II-7, N-(5-chloroindan-1-yl)-4-methoxy-benzamide]
≥ 20 µM	O=C(N[C@@H]1CCc2cc(Cl)ccc21)c1ccc(F)cc1 (single isomer, unassigned) [Compound II-31]
≤ 1 µM	O=C(N[C@@H]1CCc2cc(Cl)ccc21)c1ccccc1O [Compound III-3]
≥ 20 µM	CS(=O)(=O)Cc1ccc(C(=O)NC2CCc3cc(Cl)ccc32)cc1 (single isomer, unassigned) [Compound II-5, N-(5-chloroindan-1-yl)-4-(methylsulfonylmethyl)benzamide]
≤ 1 µM	O=C(N[C@@H]1CCc2cc(Cl)ccc21)c1cccc(F)c1O [Compound III-9]
1 to 20 µM	Nc1ccc(C(=O)N[C@@H]2CCc3cc(Cl)ccc32)cc1 [Compound II-9, 4-amino-N-[(1R)-5-chloroindan-1-yl]benzamide]
≤ 1 µM	CCS(=O)(=O)Nc1ccc(C(=O)N[C@@H]2CCc3cc(Cl)ccc32)cc1 [Compound II-10, N-[(1R)-5-chloroindan-1-yl]-4-(ethylsulfonylamino)benzamide]
≤ 1 µM	CS(=O)(=O)Nc1ccc(C(=O)N[C@@H]2CCc3cc(Cl)ccc32)c(O)c1 [Compound III-5]
≤ 1 µM	CN(c1ccc(C(=O)NC2CCc3cc(Cl)ccc32)cc1)S(C)(=O)=O (single isomer, unassigned) [Compound II-2, N-(5-chloroindan-1-yl)-4-[methyl(methylsulfonyl)amino]benzamide]
≤ 1 µM	CS(=O)(=O)Nc1ccc(C(=O)NC2CCc3cc(C(F)(F)F)ccc32)cc1 (single isomer, unassigned) [Compound II-56, 4-(methanesulfonamido)-N-[5-(trifluoromethyl)indan-1-yl]benzamide]
1 to 20 µM	CN(C)S(=O)(=O)Nc1ccc(C(=O)N[C@@H]2CCc3cc(Cl)ccc32)cc1 [Compound II-34]

— patent US20220280476A1, “KCNT1 INHIBITORS AND METHODS OF USE” (Praxis Precision Medicines, Inc., priority 2019, published 2022)
